The text below walks through data of patent publication US20090117054A1, “[…] FOR THE TREATMENT OF PAIN” (University of Kentucky Research Foundation, priority 2005, published 2009).

For data set [1] the following is noted: cited from earlier work; for time to reach maximum plasma concentration: healthy volunteers.
Data set [2] in a line: Pharmacokinetics of oxycodone in rabbits after intravenous and sublingual spray administration.
Where [3] appears, read: male, New Zealand albino, rabbit, plasma, iv, 100 ug.

Read-outs that look alike come from different tables or passages of the source.

In general, bioavailability refers to dose-corrected exposure relative to a reference, in per cent. With `COc1ccc2c3c1O[C@H]1C(=O)CC[C@@]4(O)[C@@H](C2)N(C)CC[C@]314.Cl` [oxycodone hydrochloride], the bioavailability result in data set [1] (buccal and intranasal administration) was “around 55%”.

In general, Tmax refers to the time at which the peak concentration occurs. As a reminder, the AUC(0-inf) is the area under the concentration-time curve extrapolated to infinity. Read a high AUC(0-inf) as high exposure. By Cmax is commonly meant the maximum level reached in the sampled fluid or tissue. Usually half-life stands for the time in which the quantity being followed falls by half. Read a low half-life as rapid decline. Take `COc1ccc2c3c1O[C@H]1C(=O)CC[C@@]4(O)[C@@H](C2)N(C)CC[C@]314` [oxycodone, 4,5-epoxy-14-hydroxy-3-methoxy-1 7-methyl-5a-morphinan-6-one]: the results for the “time to reach maximum plasma concentration” value in data set [1] (immediate release oral tablets), in data set [1] (intramuscular) and in data set [1] (intranasal) were 1.3 h, 1.0 h and 0.42 h, respectively. Further, the bioavailability was 40-60% in data set [1] (oral, nasal and rectal, adults, compared with parenteral administration); 45.4 ± 20.1% in data set [2] (male, New Zealand albino, rabbit, plasma, 100 μg, pH 4); 70.1 ± 17.9% in data set [2] (male, New Zealand albino, rabbit, plasma, 100 μg, pH 9). Besides, the time to peak (Tmax) was 20 min in data set [2] (male, New Zealand albino, rabbit, plasma, 100 μg) and 0 min in data set [2] (setting [3]). The AUC(0-inf) in data set [2] (setting [3]) was 213 ng·h/mL. Further, in data set [2] (setting [3]), the Cmax is 185 ng/mL. The molecule further gave a half-life in data set [2] (setting [3]) of 67.8 min. The “terminal half-life after intravenous administration compared with sublingual administration” value in data set [2] (rabbits) is on record as “close to the terminal half-life after sublingual administration”.
